Consider 11 molecules from ChEMBL document CHEMBL1201862, “PubChem BioAssay data set” (2004).

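Briefly, cells in 96-well plates were exposed to five compound concentrations for 48 h, and endpoints were estimated by linear interpolation. GI50 marks 50% less growth.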 The source made the active and inactive calls. Cut-off read from the data, not from the text of the source: active = GI50 up to about 1.1 µM and inactive = higher. Where only a bound is given, the exact number is not on record here.

What all share (experiment): growth of human tumour cells (NCI), 48 h
In test [1] the test system is U-251.
Test [2] has as its system 786-0.
Test [3] concerns COLO 205.
In test [4] the test system is SNB-19.
Test [5] relates to SK-OV-3.
In test [6] the test system is A498.
Test [7] concerns DU-145.
Test [8] deals with TK-10.
Test [9] has as its system SW-620.
In test [10] the test system is KM12.
For test [11], the system named is OVCAR-5.
Test [12] relates to SNB-75.
Test [13] relates to OVCAR-8.
The subject of test [14] is BT-549.
The test system of test [15] is HT-29.
Test [16] has as its system NCI-H522.
Test [17] concerns SF-539.
Test [18] relates to OVCAR-4.
For test [19], the system named is SR.
The subject of test [20] is HL-60.

For `O=C(CON1C(=O)c2ccccc2C1=O)c1ccccc1`, the GI50 in test [1] is > 100 µM (inactive); in [2] it was 32.4 µM (inactive); in [3], 56.4 µM (inactive); in test [4] it was > 100 µM (inactive); in test [5] it was > 100 µM (inactive); in test [6] it was > 100 µM (inactive). The GI50 is > 100 µM (inactive) in test [7]; 20.7 µM (inactive) in test [8]; 24.3 µM (inactive) in [9]; > 100 µM (inactive) in test [10]; > 100 µM (inactive) in test [11]; 97.5 µM (inactive) in test [12]. The GI50 is > 100 µM (inactive) in [13]; > 100 µM (inactive) in test [14]; 48.3 µM (inactive) in test [15]; 17.7 µM (inactive) in test [16]; 37.5 µM (inactive) in test [17]; 77.8 µM (inactive) in test [18].

Take `COc1cc(/C=C2\CCC(C)/C(=C\c3cc(OC)c(OC)c(OC)c3)C2=O)cc(OC)c1OC` (stereo not drawn): the GI50 in test [1] is 4.97 µM (inactive); in test [2] it was 3.75 µM (inactive); in [3], 2.48 µM (inactive); in test [4], 4.51 µM (inactive); in test [5], 10.5 µM (inactive); in test [6], 1.76 µM (inactive). For the same molecule, the GI50 in test [7] is 7.66 µM (inactive); in test [8], 2.63 µM (inactive); in test [9], 3.8 µM (inactive); in test [10], 2.61 µM (inactive); in [11] it was 3.38 µM (inactive); in [12] it was 18.2 µM (inactive). Also, the GI50 is 2.4 µM (inactive) in test [13], 1.02 µM (active) in test [14] and 3.21 µM (inactive) in [15].

For the molecule `COc1ccc2c(c1)-c1[nH]c3ccccc3c1CC2`, the GI50 was 16.6 µM (inactive) in test [1]; 16.4 µM (inactive) in [2]; 16.6 µM (inactive) in test [3]; 15.7 µM (inactive) in test [4]; 18.1 µM (inactive) in test [5]; 17.9 µM (inactive) in test [7]. Also, the GI50 in test [8] is 16.1 µM (inactive); in [9] it was 16.8 µM (inactive); in test [10], 13.6 µM (inactive); in [11] it was 15.7 µM (inactive); in [12] it was 15.2 µM (inactive); in test [13], 12.6 µM (inactive). In addition, the GI50 in test [14] is 17.2 µM (inactive); in test [15], 11 µM (inactive); in test [16] it was 6.31 µM (inactive); in test [17], 17.4 µM (inactive); in test [18], 17.1 µM (inactive).

`CC(O)[C@@]1(c2ccccc2)CC2(CCN(C)CC2)O[C@H]1C` (stereo partly drawn): the GI50 was > 100 µM (inactive) in [19]; > 100 µM (inactive) in test [1]; > 100 µM (inactive) in test [2]; > 100 µM (inactive) in test [3]; > 100 µM (inactive) in test [4]; 41 µM (inactive) in test [5]. The GI50 is > 100 µM (inactive) in test [6]; > 100 µM (inactive) in test [7]; > 100 µM (inactive) in test [8]; > 100 µM (inactive) in [9]; 26.2 µM (inactive) in test [20]; > 100 µM (inactive) in [10]. Moreover, the GI50 in [11], in [12], in [13], in [15], in test [16] and in test [17] was > 100 µM (inactive) throughout. Besides, the GI50 in [18] was 98.6 µM (inactive).

For `CCOc1cc2c(cc1O)/C(=N/NS(=O)(=O)c1ccc(C)cc1)C[C@@H]1[C@@H]2CC[C@]2(C)[C@@H](O)CC[C@@H]12`, the GI50 was 1.04 µM (active) in [19]; 6.53 µM (inactive) in [1]; 9.73 µM (inactive) in [2]; 3.36 µM (inactive) in test [3]; 8.79 µM (inactive) in test [4]; 10.5 µM (inactive) in test [5]. The GI50 is 9.31 µM (inactive) in [6]; 51.1 µM (inactive) in [8]; 3.52 µM (inactive) in test [9]; 4.22 µM (inactive) in [10]; 21 µM (inactive) in test [11]; 5.3 µM (inactive) in test [12]. Further, the GI50 in test [13] is 12.4 µM (inactive); in [14] it was 3.7 µM (inactive); in test [15] it was 2.89 µM (inactive); in test [16] it was 3.31 µM (inactive); in test [17], 3.45 µM (inactive); in test [18], 4.78 µM (inactive).

With `N=C(N)NCC[C@H](NC(=O)OCCCCCn1ccc(=O)[nH]c1=O)C(=O)O`, the GI50 in test [1], in test [2], in test [3], in [4], in test [5] and in [7] was > 100 µM (inactive) each time. Also, the GI50 in test [8] is > 100 µM (inactive); in [9], > 100 µM (inactive); in [20], > 100 µM (inactive); in [10], > 100 µM (inactive); in test [11], > 100 µM (inactive); in test [12] it was 41.4 µM (inactive). For the same molecule, the GI50 in test [13], in test [14], in test [15], in test [17] and in [18] was > 100 µM (inactive) throughout.

With `O=C(CN1c2ccccc2Sc2ccccc21)N1CCNCC1`, the GI50 is 56.1 µM (inactive) in test [1]; > 100 µM (inactive) in [2]; > 100 µM (inactive) in [3]; > 100 µM (inactive) in test [4]; > 100 µM (inactive) in test [5]; 34.6 µM (inactive) in [6]. The GI50 in test [7] is > 100 µM (inactive); in test [8] it was > 100 µM (inactive); in test [9] it was > 100 µM (inactive); in [20] it was > 100 µM (inactive); in [10], 64.4 µM (inactive); in [11] it was > 100 µM (inactive). For the same molecule, the GI50 in test [12] was 30.9 µM (inactive); in [13] it was > 100 µM (inactive); in test [14] it was > 100 µM (inactive); in [15], > 100 µM (inactive); in [17] it was > 100 µM (inactive); in test [18], > 100 µM (inactive).

Take `C#CCCCCC#Cc1ccccc1C(=O)C=[N+]=[N-]`: the GI50 in test [1], in [2], in test [3], in test [4], in [5] and in test [6] was > 100 µM (inactive) throughout. The GI50 in test [7] was > 100 µM (inactive); in [8] it was > 100 µM (inactive); in [9], > 100 µM (inactive); in test [11], > 100 µM (inactive); in test [12], 95.1 µM (inactive); in [13], > 100 µM (inactive). Moreover, the GI50 in test [14], in [15], in test [16], in [17] and in [18] was > 100 µM (inactive) in each case.

Turning to `COc1nc(C)nc2c1ncn2Cc1ccccc1`, the GI50 in test [19], in [1], in test [2], in test [3], in test [4] and in test [5] was > 100 µM (inactive) in each case. For the same molecule, the GI50 in [6], in [7], in test [8], in test [9], in [20] and in [10] was > 100 µM (inactive) each time. Also, the GI50 in [11], in [12], in test [13], in test [15], in [16] and in test [17] was > 100 µM (inactive) throughout. Also, in [18], the GI50 is > 100 µM (inactive).

In the case of `CCOC(=O)/C(=C\NC(N)=S)C(=O)c1ccccc1`, the GI50 in test [1], in test [2], in test [3], in test [4], in [5] and in test [6] was > 100 µM (inactive) each time. Besides, the GI50 in test [7], in test [8], in [9], in test [20], in [10] and in [11] was > 100 µM (inactive) each time. Also, the GI50 in test [12], in test [13], in test [14], in test [15], in test [17] and in [18] was > 100 µM (inactive) each time.

Regarding `CCOC(=O)c1ccc(-c2onc(C)c2Br)[nH]1`, the GI50 in [1] was 36.4 µM (inactive); in test [2], 43.4 µM (inactive); in test [3] it was 50.2 µM (inactive); in test [4], 66.1 µM (inactive); in test [5], 76.6 µM (inactive); in test [6] it was 49.9 µM (inactive). The GI50 was 55.3 µM (inactive) in test [7]; 56.9 µM (inactive) in [8]; 60 µM (inactive) in test [9]; 74 µM (inactive) in [10]; > 100 µM (inactive) in [11]; 41.7 µM (inactive) in test [12]. Moreover, the GI50 in test [13] is 37.4 µM (inactive); in test [14], 34.7 µM (inactive); in test [15], 39.5 µM (inactive); in [16], 51.9 µM (inactive); in test [18], 43.2 µM (inactive).
